Measurements taken from patent EP4810052A2, “HCRHR2 SELECTIVE POLYPEPTIDES” (Gubra A/S, priority 2023, dated 2026).
Where two headings read alike, the source gives them in different places. Starred links: 1 amine or outer side, 2 acyl side, 3 side chain; linkers in the order of their positions; H or OH if unused. Non-standard residues stand in square brackets, D forms with d. Residues, ends and D or L forms follow the SMILES beside them. Groups on a side chain read outwards from the residue. *: point of attachment. C20 diacid = O=C(O)CCCCCCCCCCCCCCCCCCC(=O)*; γGlu = O=C(O)[C@H](CCC(=O)[*:2])N[*:1]; NMeI = CC[C@H](C)[C@H](NC)C(=O)O; Nle = CCCC[C@H](N)C(=O)O; AEEA = NCCOCCOCC(=O)O; Aib = CC(C)(N)C(=O)O

Legend:
[1] = Chemical stability of purified peptides (RP-UHPLC main peak purity loss); format: physicochemical
Experimental: Chemical stability was tested at a concentration of approximately of 1.0 mg/ml peptide in the following vehicles: 50 mM phosphate buffer pH 7.5. Dissolved samples were incubated for at least 2 h at room temperature on a rocking table. The main peak purity at time zero (T0) was determined using reversed phase chromatography. The samples were incubated at 40°C for 14 days (T14) and 28 days (T28). The samples were analyzed with reversed phase chromatography and size exclusion chromatography.
Reversed Phase chromatography was performed on a Thermo Dionex Ultimate UHPLC system with UV detection at 215 nm) and equipped with a Kinetex column (1.7 µm, C8, 100 Å, 150 x 2.1 mm (00F-4499-AN)). Analysis was performed by gradient elution with buffer A (0.1% TFA in 95:5 H2O:acetonitrile) and buffer B (0.1% TFA in 5:95 H2O: acetonitrile) at a column temperature of 50 °C (gradient used 25-55%B over 40 min. Flowrate was 0.5 mL/min. The main peak purity was determined from the integrated chromatogram as the area under the main peak relative to the total peak area. The purity loss was calculated as the difference between the T0 and T14 time point and/or as the difference between the T0 and T28 time point.
The chemical stability of selected peptides was evaluated at varying pH's at 40° C over 28 days. Samples were prepared and analysed as described in procedure with the addition of pH adjusting samples to the targets indicated below. As a comparator,r commercially available semaglutide drug product (Ozempic®, Novo Nordisk) was included in the sample set.

[2] = Thioflavin T fibril formation assay of purified peptides; format: physicochemical; set-up: key: Amyloid fibril formation detected by an increase in ThT fluorescence was denoted with "Yes"; samples without increasing ThT fluorescence hence not forming amyloid fibrils were denoted "No"
Experimental: Thioflavin T fibril formation assay: Peptides were dissolved as 267 µM in 50 mM phosphate buffer pH 7.5 for 2 h at room temperature on a rocking table. The samples were then divided into three replicates of 80 µl/well and mixed with 2 µl/well Thioflavin T (ThT)to a final concentration of 4 µM ThT in a black 384 well microplate with a clear bottom (Greiner #781096). The plate was inserted in a CLARIOstar Plus microplate reader (BMG Labtech) and fibril formation was measured as an increase in fluorescence emission at 480 nm (excitation at 450 nm) during 96 h at 40°C with cycles of 5 min rest and 5 min linearshaking at700 rpm.
Compounds were dissolved to 200 µM (ca 1.0 mg/ml) in 50 mM phosphate buffer with preparation and ThT assay performed as described in the "General procedure for determination of fibril formation of peptides." above. Furthermore, samples were adjusted to pH values as indicated below. Additional co-formulations of compounds with semaglutide were prepared by dissolving compounds to 200 µM in commercially available semaglutide drug product (Ozempic®); these co-formulations were adjusted to pH 7.4.

[3] = molecular target: T1, hCRHR1 (Homo sapiens, UniProt P34998); assay: HTRF cAMP assay, determination of hCRHR1 potency (peptide libraries 5 conc., purified peptides 11 conc.); format: cell-based
T1 sequence (P34998 24-415): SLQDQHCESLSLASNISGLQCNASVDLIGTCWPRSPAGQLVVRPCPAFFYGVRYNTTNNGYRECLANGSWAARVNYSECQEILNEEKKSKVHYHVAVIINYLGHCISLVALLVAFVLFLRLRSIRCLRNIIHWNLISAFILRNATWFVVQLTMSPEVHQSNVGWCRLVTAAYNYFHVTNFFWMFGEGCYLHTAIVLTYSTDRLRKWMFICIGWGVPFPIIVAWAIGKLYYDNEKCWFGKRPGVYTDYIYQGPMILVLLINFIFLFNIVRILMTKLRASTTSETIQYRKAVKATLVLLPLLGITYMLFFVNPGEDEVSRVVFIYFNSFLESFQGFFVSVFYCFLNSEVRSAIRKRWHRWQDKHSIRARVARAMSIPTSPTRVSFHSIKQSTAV
Summary of the method: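 Cellular cAMP was read by time-resolved FRET between d2-labelled cAMP and cryptate anti-cAMP antibody. The cells were freshly thawed suspension CHO-K1 cells stably expressing human CRHR1.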

[4] = molecular target: T2, hCRHR2 (Homo sapiens, UniProt Q13324); assay: HTRF cAMP assay, determination of hCRHR2 potency (peptide libraries 5 conc., purified peptides 11 conc.); format: cell-based
T2 sequence (Q13324 1-411): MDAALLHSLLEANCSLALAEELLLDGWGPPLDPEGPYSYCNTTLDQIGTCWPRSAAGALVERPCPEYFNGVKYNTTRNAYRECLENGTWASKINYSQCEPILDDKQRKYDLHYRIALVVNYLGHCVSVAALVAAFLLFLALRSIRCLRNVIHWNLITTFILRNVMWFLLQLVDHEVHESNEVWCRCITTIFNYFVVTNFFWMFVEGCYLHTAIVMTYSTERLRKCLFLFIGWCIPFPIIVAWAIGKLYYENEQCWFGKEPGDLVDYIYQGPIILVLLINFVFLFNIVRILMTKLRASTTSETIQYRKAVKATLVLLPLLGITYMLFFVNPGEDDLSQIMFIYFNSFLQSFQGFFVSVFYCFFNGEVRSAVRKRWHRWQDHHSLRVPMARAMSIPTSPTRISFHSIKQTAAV
Summary of the method: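 EC50 derived by variable-slope sigmoid regression of FRET-based cAMP data; cellular cAMP displaced d2-labelled tracer from cryptate anti-cAMP antibody. Stable human CRHR2 CHO-K1 suspension cells, revived from frozen stocks just before the run.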

[5] = pH 7.5
[6] = pH 7.5, 40°C, 14 days, first value of cell
[7] = purified peptides, CHO-K1 cells stably expressing hCRHR1, cAMP HTRF, read-out: hCRHR1 EC50
[8] = purified peptides, CHO-K1 cells stably expressing hCRHR2, cAMP HTRF, read-out: hCRHR2 EC50

| SMILES | Chemical stability at pH 7.5 after 14 days at 40°C (% degradation) [1, 6] | Fibrillation (pH 7.5) ([2]; pH 7.5, ThT assay) | EC50 [3, 7] [nM] | Selectivity ratio (hCRHR1/ hCRHR2) ([4]; hCRHR1-EC50/hCRHR2-EC50) | EC50 [4, 8] [nM] | Solubility pH 7.5, target conc. =10 mg/mL (measured mg/mL) [5] [mg/mL] | Chemical stability at pH 7.5 after 14 days at 40°C (% degradation) ([1]; pH 7.5, 14 days, 40°C) [%] | Chemical stability at pH 7.5 after 28 days at 40°C (% degradation) ([1]; pH 7.5, 28 days, 40°C) [%] | Fibrillation (pH 7.5) ([2]; pH 7.5) | EC50 ([3]; Table 5, purified peptides, read-out: hCRHR1 EC50) [nM] | EC50 ([3]; library peptides, matched molecular pairs L vs Nle in position X^38, read-out: Potency hCRHR1 pEC50 (converted)) [nM] | Selectivity ratio (hCRHR1/ hCRHR2) ([4]; Table 5) | EC50 ([4]; Table 5, purified peptides, read-out: hCRHR2 EC50) [nM] | EC50 ([4]; library peptides, matched molecular pairs L vs Nle in position X^38, read-out: Potency hCRHR2 pEC50 (converted)) [nM] |
| --- | --- | --- | --- | --- | --- | --- | --- | --- | --- | --- | --- | --- | --- | --- |
| CC[C@H](C)[C@H](NC)C(=O)N[C@H](C(=O)N[C@@H](CC(C)C)C(=O)N[C@@H](CO)C(=O)N[C@@H](CC(C)C)C(=O)N[C@@H](CC(=O)O)C(=O)N[C@H](C(=O)N1CCC[C@H]1C(=O)N[C@H](C(=O)NCC(=O)N[C@@H](CC(C)C)C(=O)N[C@@H](CC(C)C)C(=O)N[C@@H](CCC(N)=O)C(=O)N[C@H](C(=O)N[C@@H](CC(C)C)C(=O)N[C@@H](CC(C)C)C(=O)N[C@@H](CCC(=O)O)C(=O)N[C@@H](CCC(N)=O)C(=O)N[C@@H](C)C(=O)N[C@@H](CCCNC(=N)N)C(=O)N[C@@H](C)C(=O)N[C@@H](CCCNC(=N)N)C(=O)N[C@@H](C)C(=O)N[C@@H](C)C(=O)N[C@@H](CCCNC(=N)N)C(=O)N[C@@H](CCC(=O)O)C(=O)N[C@@H](CCC(N)=O)C(=O)N[C@@H](C)C(=O)N[C@@H](CCCCNC(=O)COCCOCCNC(=O)COCCOCCNC(=O)CC[C@H](NC(=O)CC[C@H](NC(=O)CCCCCCCCCCCCCCCCCCC(=O)O)C(=O)O)C(=O)O)C(=O)N[C@@H](CCC(=O)O)C(=O)N[C@@H](CC(N)=O)C(=O)N[C@@H](C)C(=O)N[C@@H](CCC(=O)O)C(=O)N[C@H](C(=O)N[C@@H](CC(C)C)C(=O)N[C@@H](C)C(=O)N[C@@H](CCC(=O)O)C(=O)N[C@H](C(N)=O)C(C)C)[C@@H](C)CC)[C@@H](C)CC)[C@@H](C)CC)C(C)C)C(C)C [SEQ ID NO: 18] (H-[NMeI]VLSLDVPIGLLQILLEQARARAAREQAK([AEEA-AEEA-γGlu-γGlu-C20 diacid])ENAEILAEV-NH2) | -2.2 / ND % | No | > 5000 | >3571 | 1.4 | 11 | – | – | – | – | – | – | – | – |
| CC[C@H](C)[C@H](NC)C(=O)N[C@H](C(=O)N[C@@H](CC(C)C)C(=O)N[C@@H](CO)C(=O)N[C@@H](CC(C)C)C(=O)N[C@@H](CC(=O)O)C(=O)N[C@H](C(=O)N1CCC[C@H]1C(=O)N[C@H](C(=O)NCC(=O)N[C@@H](CC(C)C)C(=O)N[C@@H](CC(C)C)C(=O)N[C@@H](CCC(N)=O)C(=O)N[C@H](C(=O)N[C@@H](CC(C)C)C(=O)N[C@@H](CC(C)C)C(=O)N[C@@H](CCC(=O)O)C(=O)N[C@@H](CCC(N)=O)C(=O)N[C@@H](C)C(=O)N[C@@H](CCCNC(=N)N)C(=O)N[C@@H](C)C(=O)N[C@@H](CCCNC(=N)N)C(=O)N[C@@H](C)C(=O)N[C@@H](C)C(=O)N[C@@H](CCCNC(=N)N)C(=O)N[C@@H](CCC(=O)O)C(=O)N[C@@H](CCC(N)=O)C(=O)N[C@@H](C)C(=O)N[C@@H](CCCCNC(=O)COCCOCCNC(=O)COCCOCCNC(=O)CC[C@H](NC(=O)CC[C@H](NC(=O)CCCCCCCCCCCCCCCCCCC(=O)O)C(=O)O)C(=O)O)C(=O)NC(C)(C)C(=O)N[C@@H](CC(N)=O)C(=O)N[C@@H](C)C(=O)N[C@@H](CCC(=O)O)C(=O)N[C@H](C(=O)N[C@@H](CC(C)C)C(=O)N[C@@H](C)C(=O)N[C@@H](CCC(=O)O)C(=O)N[C@H](C(N)=O)C(C)C)[C@@H](C)CC)[C@@H](C)CC)[C@@H](C)CC)C(C)C)C(C)C [SEQ ID NO: 20] (H-[NMeI]VLSLDVPIGLLQILLEQARARAAREQAK([AEEA-AEEA-γGlu-γGlu-C20 diacid])[Aib]NAEILAEV-NH2) | -1.4 / ND % | No | > 5000 | >4167 | 1.2 | 10 | – | – | – | – | – | – | – | – |
| CCCC[C@H](NC(=O)[C@@H](NC(=O)[C@H](CCC(=O)O)NC(=O)[C@H](C)NC(=O)[C@H](CC(N)=O)NC(=O)[C@@H](NC(=O)[C@H](CCCCNC(=O)COCCOCCNC(=O)COCCOCCNC(=O)CC[C@H](NC(=O)CC[C@H](NC(=O)CCCCCCCCCCCCCCCCCCC(=O)O)C(=O)O)C(=O)O)NC(=O)[C@H](C)NC(=O)[C@H](CCC(N)=O)NC(=O)[C@H](CCC(=O)O)NC(=O)[C@H](CCCNC(=N)N)NC(=O)[C@H](C)NC(=O)[C@H](C)NC(=O)[C@H](CCCNC(=N)N)NC(=O)[C@H](C)NC(=O)[C@H](CCCNC(=N)N)NC(=O)[C@H](C)NC(=O)[C@H](CCC(N)=O)NC(=O)[C@H](CCC(=O)O)NC(=O)[C@H](CC(C)C)NC(=O)[C@H](CC(C)C)NC(=O)[C@@H](NC(=O)[C@H](CCC(N)=O)NC(=O)[C@H](CC(C)C)NC(=O)[C@H](CC(C)C)NC(=O)CNC(=O)[C@@H](NC(=O)[C@@H]1CCCN1C(=O)[C@@H](NC(=O)[C@H](CC(=O)O)NC(=O)[C@H](CC(C)C)NC(=O)[C@H](CO)NC(=O)[C@H](CC(C)C)NC(=O)[C@@H](NC(=O)[C@@H](N)[C@@H](C)CC)C(C)C)C(C)C)[C@@H](C)CC)[C@@H](C)CC)[C@@H](C)O)[C@@H](C)CC)C(=O)N[C@@H](C)C(=O)N[C@@H](CCC(=O)O)C(=O)N[C@H](C(N)=O)[C@@H](C)CC [compound 69] (H-IVLSLDVPIGLLQILLEQARARAAREQAK([AEEA-AEEA-γGlu-γGlu-C20 diacid])TNAEI[Nle]AEI-NH2) | – | – | – | – | – | 10 | -0.5 | -8.8 | No | > 5000 | 3980 | >9259 | 0.54 | 0.2 |
